According to US11324738B2, “Muscarinic agonists” (Heptares Therapeutics Limited, priority 2015, dated 2022):

Key:
Assay type in all cases: cell-based
[1] = molecular target: T1, human muscarinic M1 receptor (Homo sapiens, UniProt P11229); assay: Alphascreen Surefire phospho-ERK1/2 functional assay, CHO cells expressing M1; conditions: for Emax: CHO, read-out: % Emax cf. ACh, M1; for EC50: agonist, CHO cells, phospho-ERK1/2, read-out: pEC50 M1 (converted)
T1 construct: expressed in transfected cells
T1 sequence (P11229 1-460): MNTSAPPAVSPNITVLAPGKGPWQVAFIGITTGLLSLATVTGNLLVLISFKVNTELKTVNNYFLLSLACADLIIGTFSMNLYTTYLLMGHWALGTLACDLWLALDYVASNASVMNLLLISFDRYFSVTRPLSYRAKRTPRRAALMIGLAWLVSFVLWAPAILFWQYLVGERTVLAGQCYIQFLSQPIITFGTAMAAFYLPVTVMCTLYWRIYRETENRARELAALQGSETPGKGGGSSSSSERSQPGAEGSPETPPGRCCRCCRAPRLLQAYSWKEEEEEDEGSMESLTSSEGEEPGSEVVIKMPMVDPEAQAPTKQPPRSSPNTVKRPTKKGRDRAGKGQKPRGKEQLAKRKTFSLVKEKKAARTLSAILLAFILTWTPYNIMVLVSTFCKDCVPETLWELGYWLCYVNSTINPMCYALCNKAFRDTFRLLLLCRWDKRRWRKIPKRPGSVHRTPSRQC
Description: (§1) ERK1/2 phosphorylation is a downstream consequence of both Gq/11 and Gi/o protein coupled receptor activation, making it highly suitable for the assessment of M1, M3 (Gq/11 coupled) and M2, M4 receptors (Gi/o coupled), rather than using different assay formats for different receptor subtypes. CHO cells stably expressing the human muscarinic M1, M2, M3 or M4 receptor were plated (25K/well) onto 96-well tissue culture plates in MEM-alpha+10% dialysed FBS. Once adhered, cells were serum-starved overnight. Agonist stimulation was performed by the addition of 5 μL agonist to the cells for 5 min (37° C.). Media was removed and 50 μL of lysis buffer added. After 15 min, a 4 μL sample was transferred to 384-well plate and 7 μL of detection mixture added.

[2] = molecular target: T2, human muscarinic M2 receptor (Homo sapiens, UniProt P08172); assay: Alphascreen Surefire phospho-ERK1/2 functional assay, CHO cells expressing M2; conditions: for Emax: CHO, read-out: % Emax cf. ACh, M2; for EC50: agonist, CHO cells, phospho-ERK1/2, read-out: pEC50 M2 (converted)
T2 construct: expressed in transfected cells
T2 sequence (P08172 1-466): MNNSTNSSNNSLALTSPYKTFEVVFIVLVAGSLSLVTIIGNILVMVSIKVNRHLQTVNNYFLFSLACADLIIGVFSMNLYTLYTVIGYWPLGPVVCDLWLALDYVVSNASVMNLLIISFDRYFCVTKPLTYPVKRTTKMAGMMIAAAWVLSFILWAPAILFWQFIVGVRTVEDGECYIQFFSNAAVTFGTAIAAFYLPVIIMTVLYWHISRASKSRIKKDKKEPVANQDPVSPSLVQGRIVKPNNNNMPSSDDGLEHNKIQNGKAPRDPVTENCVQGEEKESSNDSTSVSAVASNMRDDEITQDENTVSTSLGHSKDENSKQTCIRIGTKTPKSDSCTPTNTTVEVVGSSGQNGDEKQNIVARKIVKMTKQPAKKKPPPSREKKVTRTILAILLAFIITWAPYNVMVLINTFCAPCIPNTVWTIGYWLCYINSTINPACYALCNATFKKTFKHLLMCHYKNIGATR
Description: as §1

[3] = molecular target: T3, human muscarinic M3 receptor (Homo sapiens, UniProt P20309); assay: Alphascreen Surefire phospho-ERK1/2 functional assay, CHO cells expressing M3; conditions: for Emax: CHO, read-out: % Emax cf. ACh, M3; for EC50: agonist, CHO cells, phospho-ERK1/2, read-out: pEC50 M3 (converted)
T3 construct: expressed in transfected cells
Description: as §1

[4] = molecular target: T4, human muscarinic M4 receptor (Homo sapiens, UniProt P08173); assay: Alphascreen Surefire phospho-ERK1/2 functional assay, CHO cells expressing M4; conditions: for Emax: CHO, read-out: % Emax cf. ACh, M4; for EC50: agonist, CHO cells, phospho-ERK1/2, read-out: pEC50 M4 (converted)
T4 construct: expressed in transfected cells
T4 sequence (P08173 1-479): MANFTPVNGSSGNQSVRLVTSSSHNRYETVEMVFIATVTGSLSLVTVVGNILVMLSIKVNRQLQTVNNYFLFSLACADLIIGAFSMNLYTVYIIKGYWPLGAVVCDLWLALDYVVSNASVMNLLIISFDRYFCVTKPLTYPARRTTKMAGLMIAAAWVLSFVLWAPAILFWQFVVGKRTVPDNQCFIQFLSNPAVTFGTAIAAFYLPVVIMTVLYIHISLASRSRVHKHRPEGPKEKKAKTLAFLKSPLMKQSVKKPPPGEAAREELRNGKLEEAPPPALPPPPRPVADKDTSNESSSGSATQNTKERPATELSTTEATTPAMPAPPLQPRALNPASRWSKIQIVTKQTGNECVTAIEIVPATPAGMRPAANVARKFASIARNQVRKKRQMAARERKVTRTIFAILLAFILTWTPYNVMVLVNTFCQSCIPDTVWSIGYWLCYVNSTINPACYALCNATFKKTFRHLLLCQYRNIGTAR
Description: as §1

T3 sequence (P20309 whole entry): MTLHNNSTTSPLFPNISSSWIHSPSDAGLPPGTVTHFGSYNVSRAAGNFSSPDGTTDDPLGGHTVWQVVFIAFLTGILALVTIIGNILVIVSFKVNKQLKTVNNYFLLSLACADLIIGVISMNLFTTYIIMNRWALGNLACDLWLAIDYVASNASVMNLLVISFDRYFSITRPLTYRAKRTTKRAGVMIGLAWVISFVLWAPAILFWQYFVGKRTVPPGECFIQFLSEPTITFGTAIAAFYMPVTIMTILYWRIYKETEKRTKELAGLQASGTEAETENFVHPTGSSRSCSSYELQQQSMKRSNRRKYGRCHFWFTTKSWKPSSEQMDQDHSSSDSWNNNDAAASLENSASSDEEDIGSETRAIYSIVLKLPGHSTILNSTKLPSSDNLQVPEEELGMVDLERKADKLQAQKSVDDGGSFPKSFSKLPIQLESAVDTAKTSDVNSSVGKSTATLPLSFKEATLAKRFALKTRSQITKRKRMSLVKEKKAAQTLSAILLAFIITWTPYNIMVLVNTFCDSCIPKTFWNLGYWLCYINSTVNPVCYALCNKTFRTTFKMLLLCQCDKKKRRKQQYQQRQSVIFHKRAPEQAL

Row | Structure (SMILES) | Emax [1] | EC50 [1] | Emax [2] | EC50 [2] | Emax [3] | EC50 [3] | Emax [4] | EC50 [4] | selectivity for the M4 receptor relative to the M1 receptor ([4]; statement in words)
1 | CCOC(=O)N1CC2(CC(N3CCC(N4CCCC4c4ccon4)CC3)C2)C1 (racemic) [Example 1-5 (racemic), ethyl 6-{4-[2-(1,2-oxazol-3-yl)pyrrolidin-1-yl]piperidin-1-yl}-2-azaspiro[3.3]heptane-2-carboxylate] | 18% | > 20 µM | 67% | > 20 µM | 10% | > 20 µM | 64% | 0.0398 µM | 
2 | COC(=O)N1CC2(CCC(N3CCC(c4nccn4C)CC3)C2)C1 (racemic) [Example 2-1 (racemic)] | 42% | 0.126 µM | 17% | > 20 µM | 9% | > 20 µM | 82% | 0.0158 µM | 
3 | CCOC(=O)N1CC2(CCC(N3CCC(c4nccn4C)CC3)C2)C1 (racemic) [Example 2-2 (racemic), Ethyl 6-[4-(1-methyl-1H-imidazol-2-yl)piperidin-1-yl]-2-azaspiro[3.4]octane-2-carboxylate] | 7% | 0.501 µM | 7% | > 20 µM | 5% | > 20 µM | 102% | 0.0316 µM | 
4 | CCOC(=O)N1CC2(CCC(N3CCC(n4cccn4)CC3)C2)C1 (racemic) [Example 2-3 (racemic), Ethyl 6-[4-(1H-pyrazol-1-yl)piperidin-1-yl]-2-azaspiro[3.4]octane-2-carboxylate] | 105% | 0.00398 µM | 2% | > 20 µM | 5% | > 20 µM | 94% | 0.001 µM | 
5 | CCOC(=O)N1CC2(CCC(N3CCC([C@@H]4CCCN4C(=O)NC)CC3)C2)C1 (mixture of isomers) [Example 2-4 (mixture of isomers), Ethyl 6-{4-[(2S)-1-(methylcarbamoyl)pyrrolidin-2-yl]piperidin-1-yl}-2-azaspiro[3.4]octane-2-carboxylate] | 39% | > 20 µM | 4% | > 20 µM | 2% | > 20 µM | 56% | 0.00316 µM | 
6 | CCOC(=O)N1CC2(CCC(N3CCC(N4C(=O)CC[C@@H]4C)CC3)C2)C1 (mixture of isomers) [Example 2-5 (mixture of isomers), ethyl 6-{4-[(2S)-2-methyl-5-oxopyrrolidin-1-yl]piperidin-1-yl}-2-azaspiro[3.4]octane-2-carboxylate] | 38% | 0.158 µM | 6% | > 20 µM | 3% | > 20 µM | 36% | 0.0126 µM | 
7 | CCOC(=O)N1CC2(CCC(N3CCC(N4C(=O)CC[C@@H]4CC)CC3)C2)C1 (mixture of isomers) [Example 2-6 (mixture of isomers), Ethyl 6-{4-[(2S)-2-ethyl-5-oxopyrrolidin-1-yl]piperidin-1-yl}-2-azaspiro[3.4]octane-2-carboxylate] | 71% | 0.0158 µM | 8% | > 20 µM | 13% | > 20 µM | 59% | 0.00794 µM | 
8 | CCOC(=O)N1CC2(CCC(N3CCC(N4C(=O)CC[C@H]4C)CC3)C2)C1 (mixture of isomers) [Example 2-7 (mixture of isomers), Ethyl 6-{4-[(2R)-2-methyl-5-oxopyrrolidin-1-yl]piperidin-1-yl}-2-azaspiro[3.4]octane-2-carboxylate] | 71% | 0.0398 µM | 9% | > 20 µM | 53% | > 20 µM | 69% | 0.00398 µM | 
9 | CCOC(=O)N1CC2(CCC(N3CCC(N4C(=O)CC[C@H]4CC)CC3)C2)C1 (mixture of isomers) [Example 2-9 (mixture of isomers), Ethyl 6-{4-[(2R)-2-ethyl-5-oxopyrrolidin-1-yl]piperidin-1-yl}-2-azaspiro[3.4]octane-2-carboxylate] | 100% | 0.0398 µM | 11% | > 20 µM | 8% | > 20 µM | 123% | 0.00316 µM | 
10 | CCOC(=O)N1CC2(CCC(N3CCC(N4CC(F)(F)C[C@@H]4CO)CC3)C2)C1 (mixture of isomers) [Example 2-10 (mixture of isomers), Ethyl 6-{4-[(2R)-4,4-difluoro-2-(hydroxymethyl)pyrrolidin-1-yl]piperidin-1-yl}-2-azaspiro[3.4]octane-2-carboxylate] | 6% | > 20 µM |  |  |  |  | 32% | 0.00631 µM | 
11 | COC(=O)N1CC2(CCC(N3CCC(N4CCC[C@@H]4c4cnco4)CC3)C2)C1 (single isomer, unassigned) [Example 2-11 (Isomer 2)] | 24% | > 20 µM | 6% | > 20 µM | 4% | > 20 µM | 100% | 0.0794 µM | highly selective for the M4 receptor relative to the M1 receptor
12 | CCOC(=O)N1CC2(CCC(N3CCC(N4CCC[C@@H]4c4cnco4)CC3)C2)C1 (single isomer, unassigned) [Example 2-12 (Isomer 2)] | 50% | 0.0316 µM | 7% | > 20 µM | 5% | > 20 µM | 114% | 0.001 µM | 
13 | COC(=O)N1CC2(CC(N3CCC(c4nccn4C)CC3)C2)C1 [Example 1-1, Methyl 6-[4-(1-methyl-1H-imidazol-2-yl)piperidin-1-yl]-2-azaspiro[3.3]heptane-2-carboxylate] | 113% | 3.16 µM |  |  |  |  | 73% | 0.316 µM | 
14 | CCOC(=O)N1CC2(CC(N3CCC(c4nccn4C)CC3)C2)C1 [Example 1-2, Ethyl 6-[4-(1-methyl-1H-imidazol-2-yl)piperidin-1-yl]-2-azaspiro[3.3]heptane-2-carboxylate] | 100% | 10 µM |  |  |  |  | 100% | 1.26 µM | 
15 | CCOC(=O)N1CC2(CC(N3CCC([C@@H]4CCCN4C(=O)NC)CC3)C2)C1 [Example 1-4, Ethyl 6-{4-[(2S)-1-(methylcarbamoyl)pyrrolidin-2-yl]piperidin-1-yl}-2-azaspiro[3.3]heptane-2-carboxylate] | 71% | 0.794 µM | 6% | > 20 µM | 7% | > 20 µM | 97% | 0.0158 µM | 
16 | CCOC(=O)N1CC2(CC(N3CCC(N4C(=O)CC[C@@H]4C)CC3)C2)C1 [Example 1-8, Ethyl 6-{4-[(2S)-2-methyl-5-oxopyrrolidin-1-yl]piperidin-1-yl}-2-azaspiro[3.3]heptane-2-carboxylate] | 67% | 0.794 µM |  |  |  |  | 78% | 0.2 µM | 
17 | CCOC(=O)N1CC2(CC(N3CCC(N4C(=O)CC[C@H]4C)CC3)C2)C1 [Example 1-9] | 101% | 1.58 µM |  |  |  |  | 117% | 0.158 µM | 
